Laboratory results from patent US6653300B2, “Pyrazole compounds useful as protein kinase inhibitors” (Vertex Pharmaceuticals Incorporated, priority 2000, dated 2003).
pKi: −log10 of the molar value.

How the values were obtained:
GSK-3β (AA 1-420) = target: T1, GSK-3β (AA 1-420) (Homo sapiens, UniProt P49841); experiment: Ki determination for the inhibition of GSK-3 (coupled enzyme system); format: biochemical; settings: 20 μM ATP, 20 nM GSK-3β, 30° C.
T1 construct: GSK-3β (AA 1-420)
Experimental: Compounds were screened for their ability to inhibit GSK-3β (AA 1-420) activity using a standard coupled enzyme system (Fox et al. (1998) Protein Sci. 7, 2249). Reactions were carried out in a solution containing 100 mM HEPES (pH 7.5), 10 mM MgCl2, 25 mM NaCl, 300 μM NADH, 1 mM DTT and 1.5% DMSO. Final substrate concentrations in the assay were 20 μM ATP (Sigma Chemicals, St Louis, Mo.) and 300 μM peptide (HSSPHQS (PO3H2) EDEEE, American Peptide, Sunnyvale, Calif.). Reactions were carried out at 30° C. and 20 nM GSK-3β. Final concentrations of the components of the coupled enzyme system were 2.5 mM phosphoenolpyruvate, 300 μM NADH, 30 μg/ml pyruvate kinase and 10 μg/ml lactate dehydrogenase.
An assay stock buffer solution was prepared containing all of the reagents listed above with the exception of ATP and the test compound of interest. The assay stock buffer solution (175 μl) was incubated in a 96 well plate with 5 μl of the test compound of interest at final concentrations spanning 0.002 μM to 30 μM at 30° C. for 10 min. […] The reaction was initiated by the addition of 20 μl of ATP (final concentration 20 μM). Rates of reaction were obtained using a Molecular Devices Spectramax plate reader (Sunnyvale, Calif.) over 10 min at 30° C. The Ki values were determined from the rate data as a function of inhibitor concentration.

T1 sequence (P49841 whole entry, the tested form may be a part): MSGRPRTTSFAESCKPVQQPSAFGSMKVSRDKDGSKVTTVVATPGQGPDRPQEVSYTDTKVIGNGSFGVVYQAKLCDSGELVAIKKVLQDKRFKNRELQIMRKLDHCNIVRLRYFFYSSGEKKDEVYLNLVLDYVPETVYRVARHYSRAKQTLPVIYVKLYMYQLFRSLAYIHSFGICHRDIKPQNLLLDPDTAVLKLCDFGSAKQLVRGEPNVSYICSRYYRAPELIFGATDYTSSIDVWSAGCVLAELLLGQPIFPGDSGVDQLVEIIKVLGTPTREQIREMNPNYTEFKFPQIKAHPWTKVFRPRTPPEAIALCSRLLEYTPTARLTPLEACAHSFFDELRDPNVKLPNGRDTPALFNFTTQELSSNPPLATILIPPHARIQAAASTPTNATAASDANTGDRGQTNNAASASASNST

SMILES: c1ccc2cc(Sc3nccc(Nc4cc(C5CC5)[nH]n4)n3)ccc2c1 [IIIa-3, (5-Cyclopropyl-2H-pyrazol-3-yl)-[2-(naphthalen-2-ylsulfanyl)-pyrimidin-4-yl]-amine]
- pKi (GSK-3β (AA 1-420)): > 7.00
- melting point: 248 to 250 °C

SMILES: CC(=O)Nc1ccc(Sc2nc(Nc3cc(C)[nH]n3)cc(-c3cccc(NC(C)=O)c3)n2)cc1 [IIIa-23, [6-(3-Acetamidophenyl)-2-(4-acetamido-phenyl-sulfanyl)-pyrimidin-4-yl]-(5-methyl-2H-pyrazol-3-yl)-amine]
- pKi (GSK-3β (AA 1-420)): 6.00 to 7.00
- melting point: 227 to 230 °C

SMILES: Cc1cnc(Sc2ccc3ccccc3c2)nc1Nc1cc(C2CC2)[nH]n1 [IIIa-5, (5-Cyclopropyl-2H-pyrazol-3-yl)-[5-methyl-2-(naphthalen-2-ylsulfanyl)-pyrimidin-4-yl]-amine]
- pKi (GSK-3β (AA 1-420)): 6.00 to 7.00
- melting point: 197 °C

SMILES: Cc1cc(Nc2cc(-c3ccccc3C)nc(Sc3ccc4ccccc4c3)n2)n[nH]1 [IIIa-10, [6-(2-Methylphenyl)-2-(naphthalen-2-ylsulfanyl)-pyrimidin-4-yl]-(5-methyl-2H-pyrazol-3-yl)-amine]
- pKi (GSK-3β (AA 1-420)): 6.00 to 7.00
- melting point: 211 to 214 °C

SMILES: CCS(=O)(=O)Nc1ccc(Sc2nc(Nc3cc(C)[nH]n3)cc(-c3ccccc3)n2)cc1 [IIIa-18, [2-(4-Ethanesulfonylamino-phenylsulfanyl)-6-phenyl-pyrimidin-4-yl]-(5-methyl-2H-pyrazol-3-yl)-amine]
- pKi (GSK-3β (AA 1-420)): > 7.00
- melting point: 251 to 254 °C

SMILES: COCCNc1cc(Nc2cc(C)[nH]n2)nc(SCc2cccc(Cl)c2)n1 [IIIa-27, [2-(3-Chloro-benzylsulfanyl)-6-(2-methoxy-ethylamino)-pyrimidin-4-yl]-(5-methyl-2H-pyrazol-3-yl)-amine]
- pKi (GSK-3β (AA 1-420)): > 7.00
- melting point: 101 to 102 °C

SMILES: COc1ccc(-c2cc(Nc3cc(C)[nH]n3)nc(Sc3ccc(NC(C)=O)cc3)n2)cc1 [IIIa-22, [2-(4-Acetamido-phenyl-sulfanyl)-6-(4-methoxyphenyl)-pyrimidin-4-yl]-(5-methyl-2H-pyrazol-3-yl)-amine]
- pKi (GSK-3β (AA 1-420)): 6.00 to 7.00
- melting point: 241 to 245 °C

SMILES: c1ccc2cc(Sc3nc(Nc4cc(C5CC5)[nH]n4)cc(N4CCOCC4)n3)ccc2c1 [IIIa-7, (5-Cyclopropyl-2H-pyrazol-3-yl)-[6-(morpholin-4-yl)-2-(naphthalen-2-ylsulfanyl)-pyrimidin-4-yl]-amine]
- pKi (GSK-3β (AA 1-420)): 6.00 to 7.00
- melting point: 118 to 120 °C

SMILES: Cc1cc(Nc2cc(-c3ccccc3)nc(Sc3ccc(NS(=O)(=O)C(C)C)cc3)n2)n[nH]1 [IIIa-24, [2-(4-Isopropanesulfonylamino-phenyl-sulfanyl)-6-phenyl-pyrimidin-4-yl]-(5-methyl-2H-pyrazol-3-yl)-amine]
- pKi (GSK-3β (AA 1-420)): > 7.00
- melting point: 255 to 257 °C

SMILES: CCC(=O)Nc1ccc(Sc2nc(Nc3cc(C4CC4)[nH]n3)cc(-c3ccccc3)n2)cc1 [IIIa-33, (5-Cyclopropyl-2H-pyrazol-3-yl)-[6-phenyl-2-(4-propionylamino-phenyl-sulfanyl)-pyrimidin-4-yl]-amine]
- pKi (GSK-3β (AA 1-420)): 6.00 to 7.00
- melting point: 208 to 209 °C

SMILES: Cc1cc(Nc2cc(-c3ccccc3)nc(Sc3ccc4ccccc4c3)n2)n[nH]1 [IIIa-12, (5-Methyl-2H-pyrazol-3-yl)-[2-(naphthalen-2-ylsulfanyl)-6-phenyl-pyrimidin-4-yl]-amine]
- melting point: 237 to 239 °C

SMILES: Cc1cc(Nc2cc(-c3ccccc3)nc(Sc3ccc(NC(=O)C4CC4)cc3)n2)n[nH]1 [IIIa-16, [2-(4-Cyclopropanecarbonylamino-phenylsulfanyl)-6-phenylpyrimidin-4-yl]-(5-methyl-2H-pyrazol-3-yl)-amine]
- pKi (GSK-3β (AA 1-420)): 5.15 to 6.00
- melting point: 253 to 255 °C

SMILES: Cc1cc(Nc2cc(-c3c(C)cccc3C)nc(Sc3ccc4ccccc4c3)n2)n[nH]1 [IIIa-9, [6-(2,6-Dimethylphenyl)-2-(naphthalen-2-ylsulfanyl)-pyrimidin-4-yl]-(5-methyl-2H-pyrazol-3-yl)-amine]
- melting point: 148 to 152 °C

SMILES: COC(=O)c1cccc(Sc2nc(Nc3cc(C4CC4)[nH]n3)cc(-c3ccccc3)n2)c1 [IIIa-2, (5-Cyclopropyl-2H-pyrazol-3-yl)-[2-(3-methoxycarbonyl-phenylylsulfanyl)-6-phenylpyrimidin-4-yl]-amine]
- pKi (GSK-3β (AA 1-420)): > 7.00
- melting point: 126 to 129 °C

SMILES: Cc1cc(Nc2cc(-c3ccccc3)nc(Sc3ccc(NC(=O)CC(C)C)cc3)n2)n[nH]1 [IIIa-20, [2-(4-Isobutanecarbonylamino-phenyl-sulfanyl)-6-phenyl-pyrimidin-4-yl]-(5-methyl-2H-pyrazol-3-yl)-amine]
- melting point: 241 to 243 °C

SMILES: COCc1cc(Nc2cc(C)[nH]n2)nc(Sc2ccc(C(=O)OC)cc2)n1 [IIIa-39, [2-(4-Methoxycarbonyl-phenyl-sulfanyl)-6-methoxymethyl-pyrimidin-4-yl]-(5-methyl-2H-pyrazol-3-yl)-amine]
- melting point: 204 to 205 °C

SMILES: Cc1cccc(Nc2nc(Nc3cc(C4CC4)[nH]n3)cc(-c3ccccc3)n2)c1 [IIIc-3, (5-Cyclopropyl-2H-pyrazol-3-yl)-[2-(3-methylphenylamino)-6-phenyl-pyrimidin-4-yl]-amine]
- melting point: 267 to 270 °C

SMILES: Cc1cc(Nc2cc(C3CC3)[nH]n2)nc(Sc2ccc3ccccc3c2)n1 [IIIa-6, (5-Cyclopropyl-2H-pyrazol-3-yl)-[6-methyl-2-(naphthalen-2-ylsulfanyl)-pyrimidin-4-yl]-amine]
- pKi (GSK-3β (AA 1-420)): > 7.00
- melting point: 232 °C

SMILES: CN1CCN(c2cc(Nc3cc(C4CC4)[nH]n3)nc(Sc3ccc4ccccc4c3)n2)CC1 [IIIa-8, (5-Cyclopropyl-2H-pyrazol-3-yl)-[6-(1-methylpiperazin-4-yl)-2-(naphthalen-2-ylsulfanyl)-pyrimidin-4-yl]-amine]
- pKi (GSK-3β (AA 1-420)): 6.00 to 7.00
- melting point: 113 to 115 °C

SMILES: c1ccc(-c2cc(Nc3cc(C4CC4)[nH]n3)nc(NCc3cccnc3)n2)cc1 [IIIc-5, (5-Cyclopropyl-2H-pyrazol-3-yl)-[6-phenyl-2-(pyridin-3-ylmethylamino)-pyrimidin-4-yl]-amine]
- melting point: 191 to 193 °C

SMILES: c1ccc2c(Sc3nc(Nc4cc(C5CC5)n[nH]4)c4ccccc4n3)cccc2c1 [IIa-37, (5-Cyclopropyl-2H-pyrazol-3-yl)-[2-(naphthalen-1-ylsulfanyl)-quinazolin-4-yl]-amine]
- melting point: 271 to 273 °C

SMILES: Cc1cc(Nc2nc(Nc3ccc4cn[nH]c4c3)nc3ccccc23)n[nH]1 [IIc-9, [2-(1H-Indazol-6-ylamino)-quinazolin-4-yl]-(5-methyl-2H-pyrazol-3-yl)-amine]
- melting point: > 250 °C

SMILES: Cc1nc(Sc2ccc3ccccc3c2)nc(Nc2cc(C3CC3)[nH]n2)c1C [IIIa-4, (5-Cyclopropyl-2H-pyrazol-3-yl)-[5,6-dimethyl-2-(naphthalen-2-ylsulfanyl)-pyrimidin-4-yl]-amine]
- pKi (GSK-3β (AA 1-420)): 6.00 to 7.00
- melting point: > 270 °C

SMILES: Cc1cc(Nc2nc(N(CCO)c3ccccc3)nc3ccccc23)n[nH]1 [IIc-1, {2-[(2-Hydroxyethyl)phenylamino]-quinazolin-4-yl}-(5-methyl-2H-pyrazol-3-yl)-amine]
- melting point: 217 °C

SMILES: CCCS(=O)(=O)Nc1ccc(Sc2nc(Nc3cc(C)n[nH]3)cc(-c3ccccc3)n2)cc1 [IIIa-17, (5-Methyl-2H-pyrazol-3-yl)-{6-phenyl-2-[4-(propane-1-sulfonylamino)-phenylsulfanyl]-pyrimidin-4-yl}-amine]
- pKi (GSK-3β (AA 1-420)): > 7.00
- melting point: 232 to 235 °C

SMILES: Cc1cc(Nc2cc(N3CCOCC3)nc(SCc3cccc(Cl)c3)n2)n[nH]1 [IIIa-26, [2-(3-Chloro-benzylsulfanyl)-6-morpholin-4-yl-pyrimidin-4-yl]-(5-methyl-2H-pyrazol-3-yl)-amine]
- pKi (GSK-3β (AA 1-420)): 6.00 to 7.00
- melting point: 224 to 225 °C

SMILES: Cc1cc(Nc2nc(Nc3ccc4oc(=O)c5ccccc5c4c3)nc3ccccc23)n[nH]1 [IIc-62]
- pKi (GSK-3β (AA 1-420)): 5.15 to 6.00
- melting point: 293 to 298 °C
